From patent publication US8652786B2, “Method for predicting responsiveness to drugs” (The General Hospital Corporation, priority 2005, dated 2014)
Entries after “also recorded” stand apart in the source; their conditions may differ.

Columns and labels:
MET [1] = details: Morotti et al. 2002; cited from earlier work
[2] = tested on: GTL-16 gastric carcinoma cells; details: GTL-16 cells; cited from earlier work
MET [3] = details: Morotti et al. 2002; cited from earlier work; remark: listed apart in the source
Amp+ cells [4] = test: MTT viability, gastric cancer cell lines with MET amplification; type: cell-based, human; details: 5 of 5 Amp+ cell lines, 96 h
Amp− cells [5] = test: Growth curve (SYTO60), Amp− cells; type: cell-based, human; details: 1 μM, up to 6 days
MET [6] = test: Immunoblot of constitutive MET autophosphorylation in Amp+ cells; type: cell-based, human; details: 50 nM, 3 h
[7] = tested on: gastric cancer cell line MKN45; test: Drug-sensitivity screen of 40 cancer cell lines, MKN45; type: cell-based, human; details: 3 days, DNA staining; MET-amplified line
Description: (§1) Cells were cultured and analyzed in triplicate within microtiter plates. Cell numbers were quantitated by DNA staining, 3 days after addition of various concentrations of drugs and expressed as a fraction of matched untreated cultures. For each drug concentration, cell lines with relative drug sensitivity (<50% of untreated control growth) are shown in darkest staining, intermediate sensitivity (50-75%) in […], and drug insensitivity (>75%) in intermediate shading.
(§2) Cellular Proliferation and Viability Assays. […] For quantitation of cellular proliferation, cells were fixed at appropriate time points in 4% paraformaldehyde, and all plates were stained simultaneously by using the fluorescent nucleic acid stain SYTO60 (Molecular Probes) at 1:8,000 dilution in PBS. Quantitation was done by measuring the […] at 700 nm by using the Odyssey Imaging System (LI-COR, Lincoln, Nebr.). The relative cell number was obtained by normalizing treated samples to matched untreated specimens. For quantitation of cell viability, cultures were stained after 4 days by using the MTT assay. Briefly, 10 μl of 5 mg/ml MTT (Thiazolyl blue) solution was added to each well and incubated for 2 h at 37° C. […] The results were quantitated spectrophotometrically by using a test wavelength of 570 nm and a reference wavelength of 630 nm.

Amp− cells [8] = test: MTT viability, gastric cancer cell lines without MET amplification; type: cell-based, human; details: 12 of 12 Amp− cell lines, 96 h
Amp+ cells [9] = test: Apoptosis induction (cleaved caspase-3 staining, PARP cleavage), Amp+ cells; type: cell-based, human
Description: (§3) Cells are costained with DAPI to show nuclei.
Cells were plated on coverslips in 12-well dishes and grown to approximately 75% confluency in 10% serum. […] After 72 h the cells were fixed with 4% paraformaldehyde for 20 minutes. Permeabilization with 1% NP40 for 5 minutes was followed by blocking with 3% BSA for 30 minutes. The coverslips were then incubated overnight at 4° C. with cleaved caspase-3 antibody at 1:200 dilution. The next day, the coverslips were washed 3 times with PBS and incubated with a secondary antibody (goat anti-rabbit FITC-conjugated) for 1 h at 1:250 dilution. Following 5 washes with PBS, coverslips were mounted in Vectashield mounting medium containing DAPI (Vector Laboratories; Burlingame, Calif.).
Apoptosis Induction Assay. […] After 72 h, cells were fixed with 4% paraformaldehyde for 20 min, permeabilized by using 1% Nonidet P-40 for 5 min, and blocked with 3% BSA for 30 min. The coverslips were then incubated overnight at 4° C. with cleaved caspase-3 antibody at 1:200 dilution. The next day, the coverslips were washed three times with PBS and incubated with a secondary antibody (goat anti-rabbit FITC-conjugated) for 1 h at 1:250 dilution. After five washes with PBS, coverslips were mounted in Vectashield mounting medium containing DAPI (Vector Laboratories), and staining was visualized by fluorescent microscopy.

[10] = tested on: ERK1/2, AKT, STAT3, or FAK; test: Immunoblot of baseline phosphorylation of downstream effectors in Amp− cells; type: cell-based, human; details: 3 h
Description: (§4) FIG. 3: Constitutive activation of MET and activation of downstream signaling pathways in Amp^+ cells. (FIG. 3A) MET is constitutively activated in the Amp^+ cells. […] (FIG. 3B) Effect of HGF on MET activation in Amp^+ and Amp^− cells (representative immunoblots). Cells were serum-starved for 24 h and treated with 40 ng/ml HGF for 10 minutes. Phosphorylation of MET (Y1234/1235) is unaltered in Amp^+ cells treated with HGF, but it is induced by HGF in Amp^− cells (total MET control).
as §3
(§5) Cells were either directly lysated in 2× sample buffer or in RIPA buffer (150 mM NaCl, 50 mM Tris pH 8.0, 1% NP40, 0.5% DOC, 0.1% SDS, 1 mM EDTA, 10 mM NaF, 1 mM Na-orthovanadate, 1× protease inhibitor cocktail (Roche; Indianapolis, Ind.)). Cell lysates were sonicated for 10 sec and cleared by centrifugation at 14,000 rpm for 10 min at 4° C. Cleared lysates were boiled in sample buffer and loaded onto 10% SDS-PAGE gel. For immunoblotting analysis, proteins were transferred onto Immobilon PVDF membrane (Millipore; Bedford, Mass.) and visualized with Western Lightning Plus chemiluminescence kit (Perkin Elmer; Boston, Mass.).

[11] = tested on: ERK1/2, AKT, STAT3, and FAK; test: Immunoblot of baseline phosphorylation of downstream effectors in Amp+ cells; type: cell-based, human; details: 50 nM, 3 h
Description: as §4, §3, §5

[12] = tested on: NCI-H1975 NSCLC cell line; test: Drug-sensitivity screen of 40 cancer cell lines, NCI-H1975; type: cell-based, human; details: gefitinib; L858R and T790M EGFR
Description: as §1, §2

NCI-H1650 = test: Drug-sensitivity screen of 40 cancer cell lines, NCI-H1650; type: cell-based, human; details: gefitinib 100 nM to 10 μM, 3 days, DNA staining; del E746-A750 EGFR
Description: as §1, §2

In the case of `COC(=O)[C@@]1(O)C[C@H]2O[C@]1(C)n1c3ccccc3c3c4c(c5c6ccccc6n2c5c31)C(=O)NC4` [K252a], the “inhibition of Met mediated signals” value (MET [1]) is listed as “inhibit Met mediated signals at nanomolar concentrations”, the Met-driven proliferation [2] is listed as “reduces Met-driven proliferation” and the Met autophosphorylation (MET [3]) is listed as “inhibits Met autophosphorylation”.

For `Cc1[nH]c(/C=C2\C(=O)Nc3ccc(S(=O)(=O)Cc4c(Cl)cccc4Cl)cc32)c(C)c1C(=O)N1CCC[C@@H]1CN1CCCC1` [PHA-665752, (3Z)-5-[(2,6-dichlorobenzyl)sulfonyl]-3-[(3,5-dimethyl-4-{[(2R)-2-(pyrrolidin-1-ylmethyl)pyrrolidin-1-yl]carbonyl}-1H-pyrrol-2-yl)methylene]-1,3-dihydro-2H-indol-2-one], the “effect on number of viable cells” value (Amp+ cells [4]) was “dramatic decrease in the number of viable cells; also recorded: dramatic reduction in cell numbers”, the “effect on proliferation rate” value (Amp− cells [5]) was “unaffected” and the “constitutive MET autophosphorylation” value (MET [6]) was “effectively suppressed”. For the same compound, the “Extreme sensitivity (concentration)” value [7] was 100 nM, the “effect on number of viable cells” value (Amp− cells [8]) was “resistant; also recorded: no effect” and the induction of apoptosis (Amp+ cells [9]; Amp+ cells, cleaved caspase-3 (1 μM, 72 h), PARP cleavage (500 nM, 72 h)) was “apoptosis”. For the same compound, the “course of cell death” value (Amp+ cells [9]; MKN45 cells) was “more delayed but prolonged cell death”, the PARP-cleavage signal (Amp+ cells [9]; SNU-5 cells, 72 h) was “prominent PARP-cleavage signal” and the “baseline phosphorylation of ERK1/2, AKT, STAT3, FAK” value [10] was “no effect”. For the same compound, the “baseline phosphorylation of downstream effectors ERK1/2, AKT, STAT3, FAK” value [11] was “effectively abrogated”.

For `COc1cc2ncnc(Nc3ccc(F)c(Cl)c3)c2cc1OCCCN1CCOCC1` [gefitinib], the “sensitivity in the assay” value [12] was “relatively resistant” and the “Extreme sensitivity (concentration)” value (NCI-H1650) was 100 nM.
